One data set concerns the target T1, hPol θ PD (Homo sapiens, UniProt O75417).
T1 construct: gene POLQ; pSUMO3 (POLQM1) vector, 6xHis-SUMO tag cut off; E. coli; ~90 kDa
T1 sequence (O75417 1791-2590): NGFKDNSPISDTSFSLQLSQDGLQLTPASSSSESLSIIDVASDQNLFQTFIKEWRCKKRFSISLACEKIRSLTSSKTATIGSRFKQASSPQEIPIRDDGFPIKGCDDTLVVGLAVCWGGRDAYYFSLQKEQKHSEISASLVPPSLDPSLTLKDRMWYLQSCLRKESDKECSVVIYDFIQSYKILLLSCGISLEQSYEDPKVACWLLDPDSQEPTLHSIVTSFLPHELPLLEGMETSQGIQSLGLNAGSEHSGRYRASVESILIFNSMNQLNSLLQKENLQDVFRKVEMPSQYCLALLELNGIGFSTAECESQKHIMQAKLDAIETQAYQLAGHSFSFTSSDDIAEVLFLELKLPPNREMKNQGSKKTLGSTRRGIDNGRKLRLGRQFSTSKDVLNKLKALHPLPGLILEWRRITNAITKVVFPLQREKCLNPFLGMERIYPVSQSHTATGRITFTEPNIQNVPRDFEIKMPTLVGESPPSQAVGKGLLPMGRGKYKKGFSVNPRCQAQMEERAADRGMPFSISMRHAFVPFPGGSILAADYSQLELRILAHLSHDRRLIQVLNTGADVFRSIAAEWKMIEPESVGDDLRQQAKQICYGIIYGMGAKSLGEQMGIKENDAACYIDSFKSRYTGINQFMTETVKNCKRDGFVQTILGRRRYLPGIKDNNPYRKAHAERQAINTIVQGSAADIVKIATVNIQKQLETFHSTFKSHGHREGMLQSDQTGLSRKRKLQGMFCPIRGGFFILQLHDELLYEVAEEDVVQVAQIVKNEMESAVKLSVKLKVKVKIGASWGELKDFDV
Kind of data set: primer extension, denaturing gel. In kind it is biochemical.

Data set [1] concerns the target T2, zPol theta PD (DNA polymerase theta polymerase domain) (zebrafish, UniProt F1Q4P4 1832-2576).
T2 sequence: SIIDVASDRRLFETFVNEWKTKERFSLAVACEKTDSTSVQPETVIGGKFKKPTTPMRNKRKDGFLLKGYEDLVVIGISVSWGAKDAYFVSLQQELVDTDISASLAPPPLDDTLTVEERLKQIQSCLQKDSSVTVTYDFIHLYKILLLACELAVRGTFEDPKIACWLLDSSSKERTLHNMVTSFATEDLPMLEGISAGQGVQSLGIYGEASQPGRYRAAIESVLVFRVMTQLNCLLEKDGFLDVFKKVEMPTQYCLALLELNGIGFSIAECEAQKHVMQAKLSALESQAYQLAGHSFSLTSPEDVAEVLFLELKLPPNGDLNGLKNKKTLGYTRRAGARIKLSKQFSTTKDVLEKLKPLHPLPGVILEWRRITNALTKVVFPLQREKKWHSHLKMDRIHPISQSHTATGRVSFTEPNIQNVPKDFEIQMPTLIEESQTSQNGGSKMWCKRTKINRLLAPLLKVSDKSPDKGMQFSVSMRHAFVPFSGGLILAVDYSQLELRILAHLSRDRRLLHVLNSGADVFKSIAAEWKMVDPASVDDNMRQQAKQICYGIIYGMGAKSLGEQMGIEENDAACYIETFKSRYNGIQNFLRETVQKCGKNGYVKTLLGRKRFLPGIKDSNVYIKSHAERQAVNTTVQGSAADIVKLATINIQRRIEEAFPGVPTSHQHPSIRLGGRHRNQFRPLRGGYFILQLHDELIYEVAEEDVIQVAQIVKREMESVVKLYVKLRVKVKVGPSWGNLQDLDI
Kind of data set: EMSA; 10 nM DNA, 0-1000 nM protein; binding buffer (composition not given in the material), 1 h at room temperature, 6% native PAGE. The following applies: protein: recombinant; tags: 6xHis-SUMO, cleaved off (untagged); label: 5'-6-FAM on strand 1 (25-mer primer); primer-template, 22 bp; 5' overhang 18 nt on template, 3 nt unpaired 5' TTT on primer.

In the case of `Nc1ccn([C@H]2C[C@H](O)[C@@H](COP(=O)(O)OP(=O)(O)OP(=O)(O)O)O2)c(=O)n1` [dCTP], the “primer extension, denaturing gel” value on hPol θ PD (25/40 dsDNA, templating G, MgCl2 or MnCl2, pH 8.0, 37 °C, steady state) is “Both enzymes were able to incorporate single nucleotides, correct and incorrect as well”.
`Nc1ncnc2c1ncn2[C@H]1C[C@H](O)[C@@H](COP(=O)(O)OP(=O)(O)OP(=O)(O)O)O1` [dATP]: the “primer extension, denaturing gel” value on hPol θ PD (CPD (T-T dimer) 24/33 DNA, 10 mM MgCl2 or MnCl2, pH 8.0, 37 °C, single turnover) is “Both enzymes were able to readily insert opposite a T-T dimer”.

B1: 25/40 dsDNA undamaged (dsDNA)
DNA 1: TTTGCCTTGACCATGTAACAGAGAG
DNA 2: TCTCTTCTCTCACTCACGCTCTCTGTTACATGGTCAAGGC
By Kd is commonly meant a measure of binding affinity in units of concentration. For B1, in data set [1], the equilibrium dissociation constant (Kd) is 19.8 ± 3.1 nM.

For the origin of these results see article PMC12040184, “Zebrafish Polymerase Theta and human Polymerase Theta: Orthologues with homologous function” (PLOS One, 2025).
